These results are taken from PMC2846716 (Journal of medicinal chemistry, 2010).

Data set [1] has as its system CF-1 mice. The note with it: after i.p. administration; ref [5]; cited from earlier work.
The subject of data set [2] is CF-1 mice. In words: 6 Hz corneal stimulation seizure test. Type of data set: in vivo, mouse. The following applies: 4 mg/kg i.p.; for Primary Screening at 4 mg/kg (6 Hz, 32 mA), mice protected / tested, 15 min: challenged 15 min after administration; for Primary Screening at 4 mg/kg (6 Hz, 32 mA), mice protected / tested, 30 min: challenged 30 min after administration; for Primary Screening at 4 mg/kg (6 Hz, 32 mA), mice protected / tested, 60 min: challenged 60 min after administration; for Primary Screening at 4 mg/kg (6 Hz, 32 mA), mice protected / tested, 120 min: challenged 120 min after administration; for Primary Screening at 4 mg/kg (6 Hz, 32 mA), mice protected / tested, 240 min: challenged 240 min after administration.

The nature of data set [3]: Stability in 25% rat serum. It counts as in vitro ADME. The note with it: 25% rat serum at 37° C, 0.1M Tris-HCl pH 7.5, 20 μM peptide, up to 8 hours, HPLC.
For data set [4] the following is noted: in vitro stability in rat serum; ref [5], [7]; cited from earlier work.
Data set [5] is described as follows: LogD by HPLC capacity factor. Type of data set: physicochemical. The following applies: RP-HPLC, Vydac diphenyl column (capacity factor k').
The target of data set [6] is T1, hGalR2 (Homo sapiens, UniProt O43603).
T1 sequence (O43603 1-387): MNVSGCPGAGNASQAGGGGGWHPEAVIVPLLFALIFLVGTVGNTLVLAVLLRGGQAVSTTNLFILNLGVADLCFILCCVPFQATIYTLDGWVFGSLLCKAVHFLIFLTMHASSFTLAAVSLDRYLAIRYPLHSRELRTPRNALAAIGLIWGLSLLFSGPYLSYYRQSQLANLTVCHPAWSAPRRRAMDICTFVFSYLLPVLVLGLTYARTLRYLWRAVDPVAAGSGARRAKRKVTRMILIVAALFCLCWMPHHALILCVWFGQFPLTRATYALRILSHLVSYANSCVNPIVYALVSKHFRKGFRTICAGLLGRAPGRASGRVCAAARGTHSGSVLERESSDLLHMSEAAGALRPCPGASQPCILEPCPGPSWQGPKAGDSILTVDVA
Type of data set: binding. The note with it: relative to [N-Me, des-Sar]Gal-B2.

Data set [7] concerns GalR3. The following applies: binding; ref [18]; cited from earlier work.

Where a SMILES comes first, the peptide text is derived from it. [ ]: non-standard residue; d: D form. The star is where a group is joined. NMeW = CN[C@@H](Cc1c[nH]c2ccccc12)C(=O)O; Palmitoyl = CCCCCCCCCCCCCCCC(=O)*

Consider `CCCCCCCCCCCCCCCC(=O)NCCCC[C@H](NC(=O)[C@H](CCCCN)NC(=O)[C@H](CCCCN)NC(=O)[C@@H]1CCCN1C(=O)CNC(=O)[C@H](CC(C)C)NC(=O)[C@H](CC(C)C)NC(=O)[C@H](Cc1ccc(O)cc1)NC(=O)CNC(=O)[C@H](C)NC(=O)[C@H](CO)NC(=O)[C@H](CC(N)=O)NC(=O)[C@H](CC(C)C)NC(=O)[C@@H](NC(=O)[C@H](Cc1c[nH]c2ccccc12)NC(=O)CNC)[C@@H](C)O)C(=O)N[C@@H](CCCCN)C(N)=O` [Gal-B2], for which, in data set [1], the “ED50, 6 Hz corneal stimulation mouse model” value was 0.8 mg/kg. In data set [2], the “Primary Screening at 4 mg/kg (6 Hz, 32 mA), mice protected / tested, 15 min” value is listed as 3/4; the “Primary Screening at 4 mg/kg (6 Hz, 32 mA), mice protected / tested, 30 min” value is 4/4; the “Primary Screening at 4 mg/kg (6 Hz, 32 mA), mice protected / tested, 60 min” value is reported as 4/4; the “Primary Screening at 4 mg/kg (6 Hz, 32 mA), mice protected / tested, 120 min” value is 4/4. Moreover, the “Primary Screening at 4 mg/kg (6 Hz, 32 mA), mice protected / tested, 240 min” value in data set [2] is given as 0/4. For the same compound, the “half-life in 25% rat serum” value in data set [3] stood at 9.4 h. In addition, the “serum half-life in rat serum” value in data set [4] was 9.4 h.

Take `CCCCCCCCCCCCCCCC(=O)NCCCC[C@H](NC(=O)[C@H](CCCCN)NC(=O)[C@H](CCCCN)NC(=O)[C@@H]1CCCN1C(=O)CNC(=O)[C@H](CC(C)C)NC(=O)[C@H](CC(C)C)NC(=O)[C@H](Cc1ccc(O)cc1)NC(=O)CNC(=O)[C@H](C)NC(=O)[C@H](CO)NC(=O)[C@H](CC(N)=O)NC(=O)[C@H](CC(C)C)NC(=O)[C@@H](NC(=O)[C@@H](N)Cc1c[nH]c2ccccc12)[C@@H](C)O)C(=O)N[C@@H](CCCCN)C(N)=O` [Gal-B5] (H-WTLNSAGYLLGPKKK(Palmitoyl)K-NH2): in data set [2], the “Primary Screening at 4 mg/kg (6 Hz, 32 mA), mice protected / tested, 15 min” value was 2/4; the “Primary Screening at 4 mg/kg (6 Hz, 32 mA), mice protected / tested, 30 min” value is 1/4; the “Primary Screening at 4 mg/kg (6 Hz, 32 mA), mice protected / tested, 60 min” value is listed as 2/4; the “Primary Screening at 4 mg/kg (6 Hz, 32 mA), mice protected / tested, 120 min” value is on record as 2/4. In data set [2], the “Primary Screening at 4 mg/kg (6 Hz, 32 mA), mice protected / tested, 240 min” value is 0/3. Further, the chromatographic logD in data set [5] was found to be 1.22 ± 0.02. The “reduction of binding toward GalR2 on removal of N-terminal methyl group” value in data set [6] is on record as 2 fold.

For the compound `CCCCCCCCCCCCCCCC(=O)NCCCC[C@H](NC(=O)[C@H](CCCCN)NC(=O)[C@H](CCCCN)NC(=O)[C@@H]1CCCN1C(=O)CNC(=O)[C@H](CC(C)C)NC(=O)[C@H](CC(C)C)NC(=O)[C@H](Cc1ccc(O)cc1)NC(=O)CNC(=O)[C@H](C)NC(=O)[C@H](CO)NC(=O)[C@H](CC(N)=O)NC(=O)[C@H](CC(C)C)NC(=O)[C@@H](NC(=O)[C@H](Cc1c[nH]c2ccccc12)NC(C)=O)[C@@H](C)O)C(=O)N[C@@H](CCCCN)C(N)=O` [[N-Ac, des-Sar]Gal-B2] (Ac-WTLNSAGYLLGPKKK(Palmitoyl)K-NH2), the chromatographic logD in data set [5] stood at 1.28 ± 0.02.

For the compound `CCCCCCCCCCCCCCCC(=O)NCCCC[C@H](NC(=O)[C@H](CCCCN)NC(=O)[C@H](CCCCN)NC(=O)[C@@H]1CCCN1C(=O)CNC(=O)[C@H](CC(C)C)NC(=O)[C@H](CC(C)C)NC(=O)[C@H](Cc1ccc(O)cc1)NC(=O)CNC(=O)[C@H](C)NC(=O)[C@H](CO)NC(=O)[C@H](CC(N)=O)NC(=O)[C@H](CC(C)C)NC(=O)[C@@H](NC(=O)[C@H](Cc1c[nH]c2ccccc12)NC)[C@@H](C)O)C(=O)N[C@@H](CCCCN)C(N)=O` [[N-Me, des-Sar]Gal-B2] (H-[NMeW]TLNSAGYLLGPKKK(Palmitoyl)K-NH2), in data set [2], the “Primary Screening at 4 mg/kg (6 Hz, 32 mA), mice protected / tested, 15 min” value was 0/4; the “Primary Screening at 4 mg/kg (6 Hz, 32 mA), mice protected / tested, 30 min” value is 3/4; the “Primary Screening at 4 mg/kg (6 Hz, 32 mA), mice protected / tested, 60 min” value was 3/4; the “Primary Screening at 4 mg/kg (6 Hz, 32 mA), mice protected / tested, 120 min” value was 1/4. In data set [2], the “Primary Screening at 4 mg/kg (6 Hz, 32 mA), mice protected / tested, 240 min” value was 0/3. The chromatographic logD in data set [5] stood at 1.29 ± 0.01.

Turning to `CCCCCCCCCCCCCCCC(=O)NCCCC[C@H](NC(=O)[C@H](CCCCN)NC(=O)[C@H](CCCCN)NC(=O)[C@@H]1CCCN1C(=O)CNC(=O)[C@H](CC(C)C)NC(=O)[C@H](CC(C)C)NC(=O)[C@H](Cc1ccc(O)cc1)NC(=O)CNC(=O)[C@H](C)NC(=O)[C@H](CO)NC(=O)[C@H](CC(N)=O)NC(=O)[C@H](CC(C)C)NC(=O)[C@@H](NC(=O)[C@H](Cc1c[nH]c2ccccc12)NC(=O)[C@H](C)N)[C@@H](C)O)C(=O)N[C@@H](CCCCN)C(N)=O` [[Sar1Ala]Gal-B2] (H-AWTLNSAGYLLGPKKK(Palmitoyl)K-NH2), in data set [2], the “Primary Screening at 4 mg/kg (6 Hz, 32 mA), mice protected / tested, 15 min” value is reported as 4/4; the “Primary Screening at 4 mg/kg (6 Hz, 32 mA), mice protected / tested, 30 min” value is 4/4; the “Primary Screening at 4 mg/kg (6 Hz, 32 mA), mice protected / tested, 60 min” value is 4/4; the “Primary Screening at 4 mg/kg (6 Hz, 32 mA), mice protected / tested, 120 min” value is 1/4. Moreover, the “Primary Screening at 4 mg/kg (6 Hz, 32 mA), mice protected / tested, 240 min” value in data set [2] is reported as 0/4. Further, the chromatographic logD in data set [5] is 1.28 ± 0.01.

As to `CCCCCCCCCCCCCCCC(=O)NCCCC[C@H](NC(=O)[C@H](CCCCN)NC(=O)[C@H](CCCCN)NC(=O)[C@@H]1CCCN1C(=O)CNC(=O)[C@H](CC(C)C)NC(=O)[C@H](CC(C)C)NC(=O)[C@H](Cc1ccc(O)cc1)NC(=O)CNC(=O)[C@H](C)NC(=O)[C@H](CO)NC(=O)[C@H](CC(N)=O)NC(=O)[C@H](CC(C)C)NC(=O)[C@@H](NC(=O)[C@H](Cc1c[nH]c2ccccc12)NC(=O)CN)[C@@H](C)O)C(=O)N[C@@H](CCCCN)C(N)=O` [[Sar1Gly]Gal-B2], in data set [2], the “Primary Screening at 4 mg/kg (6 Hz, 32 mA), mice protected / tested, 15 min” value is 1/4; the “Primary Screening at 4 mg/kg (6 Hz, 32 mA), mice protected / tested, 30 min” value is on record as 3/4; the “Primary Screening at 4 mg/kg (6 Hz, 32 mA), mice protected / tested, 60 min” value was 3/4; the “Primary Screening at 4 mg/kg (6 Hz, 32 mA), mice protected / tested, 120 min” value is on record as 0/4. The “Primary Screening at 4 mg/kg (6 Hz, 32 mA), mice protected / tested, 240 min” value in data set [2] is 0/3. Besides, the chromatographic logD in data set [5] amounted to 1.3 ± 0.04.

With WTLNSAGYLL-CONH2 [Gal(2-11)], the “preference towards GalR2 above GalR3” value in data set [7] is reported as 12 fold.
